Assay type in all cases: cell-based
One test deals with MDA-MB-468. In words: MTT cytotoxicity assay, breast cancer cell line MDA-MB-468. The following applies: Homo sapiens, MDA-MB-468, 24 h, read-out: IC50 MDA-MB-468.
In the next test the test system is A375. The test can be described thus: MTT cytotoxicity assay, melanoma cell line A375. As to conditions: Homo sapiens, A-375, 24 h, read-out: IC50 A375.
The test system of a further test is MCF7. The test can be described thus: MTT cytotoxicity assay, breast cancer cell line MCF7. As to conditions: Homo sapiens; for IC50: MCF7, 24 h, read-out: IC50 MCF7.

Take `CCCCCn1cc(COc2nc3c(c(=O)n(C)c(=O)n3C)n2C)nn1` [Compound 22f, 1,3,7-Trimethyl-8-((1-pentyl-1H-1,2,3-triazol-4-yl)methoxy)-1H-purine-2,6(3H,7H)-dione]: the IC50 in the test with MDA-MB-468 is 126 ± 0.6 µM; in the test with A375, 160 ± 1.5 µM; in the test on MCF7 it was 136 ± 0.2 µM. Moreover, the viability at 300 µM in the test on MCF7 (MCF7, read-out: viability value, MCF-7) is 17 ± 3%.

On to `CCCCCCn1cc(COc2nc3c(c(=O)n(C)c(=O)n3C)n2C)nn1` [Compound 22g, 8-((1-Hexyl-1H-1,2,3-triazol-4-yl)methoxy)-1,3,7-trimethyl-1H-purine-2,6(3H,7H)-dione], for which the IC50 with MDA-MB-468, in the test with A375 and in the test with MCF7 was over 300 µM throughout.

As for `CCCCCCCCn1cc(COc2nc3c(c(=O)n(C)c(=O)n3C)n2C)nn1` [Compound 22i, 1,3,7-Trimethyl-8-((1-octyl-1H-1,2,3-triazol-4-yl)methoxy)-1H-purine-2,6(3H,7H)-dione], the IC50 came out at 175 ± 1.4 µM with MDA-MB-468, 146 ± 1.5 µM in the test with A375 and 165 ± 1.8 µM with MCF7.

Consider `CCCCCCCCCCn1cc(COc2nc3c(c(=O)n(C)c(=O)n3C)n2C)nn1` [Compound 22j, 8-((1-Decyl-1H-1,2,3-triazol-4-yl)methoxy)-1,3,7-trimethyl-1H-purine-2,6(3H,7H)-dione], for which the IC50 in the test on MDA-MB-468, with A375 and with MCF7 was over 300 µM each time.

As for `CN(Cc1cnc2nc(N)nc(N)c2n1)c1ccc(C(=O)N[C@@H](CCC(=O)O)C(=O)O)cc1` [MTX, Methotrexate, reference compound], the IC50 in the test on MDA-MB-468 is 37 ± 1.9 µM; with A375 it was 32 ± 2.2 µM; in the test with MCF7, 30 ± 2.9 µM.

For `Cn1c(=O)c2c(nc(OCc3cn(CCc4ccccc4)nn3)n2C)n(C)c1=O` [Compound 22b, 1,3,7-Trimethyl-8-((1-phenethyl-1H-1,2,3-triazol-4-yl)methoxy)-1H-purine-2,6(3H,7H)-dione], the IC50 with MDA-MB-468, in the test with A375 and in the test on MCF7 was over 300 µM in each case.

In the case of `Cn1c(=O)c2c(nc(OCc3cn(Cc4ccccc4)nn3)n2C)n(C)c1=O` [Compound 22c, 8-((1-Benzyl-1H-1,2,3-triazol-4-yl)methoxy)-1,3,7-trimethyl-1H-purine-2,6(3H,7H)-dione], the IC50 with MDA-MB-468 is over 300 µM; with A375, under 12.5 µM; in the test with MCF7, over 300 µM.

As to `Cn1c(=O)c2c(nc(OCc3cn(C(c4ccccc4)c4ccccc4)nn3)n2C)n(C)c1=O` [Compound 22e, 8-((1-Benzhydryl-1H-1,2,3-triazol-4-yl)methoxy)-1,3,7-trimethyl-1H-purine-2,6(3H,7H)-dione], the IC50 in the test with MDA-MB-468 was over 300 µM; in the test with A375, 286 ± 0.2 µM; in the test on MCF7, 284 ± 0.2 µM.

With `CCCCCCCn1cc(COc2nc3c(c(=O)n(C)c(=O)n3C)n2C)nn1` [Compound 22h, 8-((1-Heptyl-1H-1,2,3-triazol-4-yl)methoxy)-1,3,7-trimethyl-1H-purine-2,6(3H,7H)-dione], the IC50 in the test on MDA-MB-468, in the test with A375 and with MCF7 was over 300 µM throughout.

Consider `Cn1c(=O)c2c(nc(OCc3cn(CCCc4ccccc4)nn3)n2C)n(C)c1=O` [Compound 22a, 1,3,7-Trimethyl-8-((1-(3-phenylpropyl)-1H-1,2,3-triazol-4-yl)methoxy)-1H-purine-2,6(3H,7H)-dione], for which the values for the IC50 in the test on MDA-MB-468, with A375 and with MCF7 were 256 ± 1.4 µM, 179 ± 1.2 µM and 268 ± 0.2 µM, respectively.

In the case of `Cc1ccc(Cn2cc(COc3nc4c(c(=O)n(C)c(=O)n4C)n3C)nn2)cc1` [Compound 22d, 1,3,7-Trimethyl-8-((1-(4-methylbenzyl)-1H-1,2,3-triazol-4-yl)methoxy)-3,7-dihydro-1H-purine-2,6-dione], the values for the IC50 in the test with MDA-MB-468, in the test on A375 and in the test with MCF7 were over 300 µM, 194 ± 1.6 µM and over 300 µM, respectively.

These data come from publication PMC9850771 (RSC Advances, 2023).
